This note sets out measurements from article PMC4032254, “Targeting of the MYCN Protein with Small Molecule c-MYC Inhibitors” (PLoS ONE, 2014).

One may read the IC50 as the concentration that gives 50% inhibition.

One assay has as its system Tet21N cells. Nature of the assay: Apoptosis in Tet21N cells with doxycycline regulated MYCN expression. The class given is cell-based, human. Conditions: 48 hour treatment. The text has this:
GAPDH was used as loading control. […] Error bars indicate standard error. (TIF) Click here for additional data file.

For the next assay, the system named is Kelly cells. Nature of the assay: Crystal violet growth inhibition assay in Kelly cells. The format is cell-based, human. The conditions noted are these: 48 h treatment. The text has this: Error bars indicate standard deviation. […] Error bars indicate standard deviation.
The target of the next assay is T1, MYCN/MAX interaction (Homo sapiens, UniProt P04198).
T1 construct: endogenous in cells; host or cells: SMS-KCN69n (human MYCN-amplified neuroblastoma)
T1 sequence (P04198 1-464): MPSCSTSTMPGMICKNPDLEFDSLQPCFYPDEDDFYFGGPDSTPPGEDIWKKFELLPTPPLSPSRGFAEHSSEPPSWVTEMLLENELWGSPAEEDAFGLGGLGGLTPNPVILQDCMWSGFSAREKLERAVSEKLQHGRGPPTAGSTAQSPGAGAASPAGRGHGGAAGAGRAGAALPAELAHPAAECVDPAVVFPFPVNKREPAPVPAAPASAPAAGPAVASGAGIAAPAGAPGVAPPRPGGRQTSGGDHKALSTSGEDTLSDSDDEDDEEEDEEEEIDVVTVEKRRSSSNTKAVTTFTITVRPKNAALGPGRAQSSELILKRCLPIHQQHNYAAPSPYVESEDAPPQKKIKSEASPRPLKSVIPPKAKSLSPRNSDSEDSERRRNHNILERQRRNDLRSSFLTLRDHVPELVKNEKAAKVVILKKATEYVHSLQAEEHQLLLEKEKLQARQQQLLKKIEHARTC
Nature of the assay: Proximity ligation assay (PLA) for MYCN/MAX interaction in SMS-KCN69n cells. The format is cell-based. Conditions: 6 hours treatment, compared to DMSO. An excerpt: To investigate if the other small molecules also have an effect on MYCN/MAX dimerization we performed a proximity ligation assay (PLA) using MYCN-amplified SMS-KCN69n NB cells. […] No signal was detected in any of the experimental negative controls (Figure S4).
Figure 3 Reduction of MYCN/MAX interaction in NB cells after treatment with small molecules. A) Proximity ligation assay (PLA) for MYCN/MAX interaction after treatment of SMS-KCN69n cells with the different small molecules at the indicated concentrations for 6 hours. […] DNA is stained with DAPI. Scale bar: […]. The pictures are representative from three independent experiments. B) Quantification of the PLA signals per cell after treatment with the different compounds. Error bars indicate standard error of the mean.
40×10^3 SMS-KCN69n cells were seeded on collagen coated coverslips and grown for 24 hours and treated for 6 hours the next day. After 6 hours the cells were washed in PBS and treated as previously described. The PLA assay was performed after manufacturer's instructions with the Duolink kit (Olink, Uppsala, Sweden). The cells were incubated with primary antibody against MYCN (NCMII100, St Cruz Bio) 1∶500 and Max (C-17, St Cruz Bio) 1∶500 for 1 hour in a humidity chamber at 37°C, which were diluted in antibody diluent provided by the manufacturer. MYCN (1∶500) and FAS (A-20, St Cruz Bio) 1∶500 as well as MAX (1∶500) and GFP (C-2, St Cruz Bio) 1∶500 antibodies were used in combination in order to test for any unspecific binding of the secondary antibodies or unspecific signals. […]
The confocal images of the cells were acquired at 63× magnification using a motorized axiovert fluorescence microscope 200 M LCI (Zeiss GmBH, Göttingen, Germany) including a CSU10 Yokogawa head; a multilens/multipinhole array aperture (Yokogawa, Japan), an ORCA ER cold CCD camera; detector array 1344×1024px (Hammamatsu, Japan) and two continuous wave diode-pumped solid-state (DPSS) lasers for fluorescence excitation (Cobolt, Sweden); Cobolt Calypso 491 nm DPSS (excitation of green PLA fluorophore) and Cobolt Jive 561 nm DPSS (excitation of Alexa Fluor 568). […] A total amount of at least 120 cells were analyzed for all compounds. The PLA signals were analyzed using the open source image analysis program Image J (NIH, Bethseda, USA) and the amount of PLA signal per cell was calculated. Two persons analyzed the images independently in a blind fashion.
In order to quantify the PLA signal from the total z-depth of each cell confocal z-stacks was projected in z and identically processed regarding background subtraction. The PLA signal was then quantified blindly and automatically using a find maxima-based algorithm in ImageJ (plugin routine developed by Dr. E. Flaberg and Professor L. Szekely, KI and available upon request). […]

In another assay the test system is MYCN protein levels. In words: Western blot of MYCN protein levels in SK-N-BE(2) cells. The class given is cell-based, human. Conditions: 48 hours. The procedure:
In order to determine the effect of the other compounds analyzed in this study on the MYCN protein levels, SK-N-BE(2) NB cells were treated with as a high concentration of each compound as possible without resulting in excessive cell death. […] Membranes were probed with antibodies recognizing MYCN and GAPDH. The blots are representative from three independent experiments. Whole cell extracts were prepared and lysed using RIPA-buffer. Western blot analysis was performed as previously described. In brief, membranes were probed with a mouse anti-MYCN antibody (B8.4.B, St Cruz Bio), MAX antibody (C-2, St Cruz Bio) and an HRP-conjugated anti-mouse antibody (DAKO) was used as secondary antibody. The membranes were developed using enhanced chemiluminescence substrate (ECL, Amersham).

With `O=[N+]([O-])c1ccc(Nc2ccccc2-c2ccccc2)c2nonc12` [Compound 10074-G5], the “apoptosis induction in cells with high vs low MYCN” value in the assay on Tet21N cells is recorded as “MYCN dependent induction of apoptosis”. Further, half-maximal inhibition in the assay on Kelly cells (IC50) required 22.5 µM. Besides, the “effect on MYCN/MAX interaction (PLA)” value at MYCN/MAX interaction is on record as “reduced the MYCN/MAX interaction”. Further, the “effect on MYCN protein levels” value in the assay on MYCN protein levels is given as “decreased the MYCN protein levels at lower concentrations than 10058-F4”.

In the case of `CCc1ccc(C=C2SC(=S)NC2=O)cc1` [Compound 10058-F4, [Z,E]-5-[4-ethylbenzylidine]-2-thioxothiazolidin-4-one], the “apoptosis induction in cells with high vs low MYCN” value in the assay with Tet21N cells is reported as “cells with low MYCN-levels were less sensitive”. This compound registered an IC50 in the assay with Kelly cells of 41.1 µM. Further, the “effect on MYCN/MAX interaction (PLA)” value at MYCN/MAX interaction is recorded as “reduced the MYCN/MAX interaction”. Also, in the assay with MYCN protein levels, the “effect on MYCN protein levels” value was “able to efficiently decrease the MYCN protein levels”.
